Laboratory results taken from patent publication US20150268254A1, “SEBOCYTE CELL CULTURING AND METHODS OF USE” (Children's Hospital Medical Center, priority 2012, published 2015).

How the values were obtained:
[1] = test system: sebocytes; conditions: known effect of reference compound; cited from earlier work
[2] = test system: sebocytes-derived from breast and face; assay: Real-time PCR of lipogenic genes in breast- and face-derived sebocytes; type: cell-based, human; conditions: 5 ng/ml TGFβ1, 24 h
Method: (§1) Total RNA was isolated using a Rneasy Mini Kit (Qiagen, Germantown, Md.) and used to produce cDNA (Maxima first strand cDNA synthesis kit, Fermentas, Waltham, Mass.). Reverse transcription (RT) reactions were diluted to 10 ng/pl and 1 pl of each RT was used for real-time PCR. Real-time PCR was performed using the CFX96 real-time PCR System, CFX Manager Software and the SsoFast EvaGreen Supermix reagents (Biorad, Hercules, Calif.). All reactions were run in triplicate and analyzed using the […] with relative expression normalized to GAPDH.
RNA was isolated from sebocytes-derived from breast and face untreated or treated with 5 ng/ml of TGFβ1 for 24 h and used for real-time PCR. Two experiments were performed and all qPCR reactions were performed in triplicate. Data were normalized to GAPDH expression for each cell population and changes in relative expression were determined using untreated cells as a reference point.

[3] = test system: SSG3 sebocytes; assay: Immunoblot of Smad2 phosphorylation in SSG3 sebocytes; type: cell-based, human; conditions: 5 ng/ml TGFβ1, one hour
[4] = test system: SSG3 cells; assay: Real-time PCR of lipogenic gene expression in primary SSG3 sebocytes; type: cell-based, human
Method: To ablate TGFβRII in SSG3 cells, shRNA vectors from the CCHMC Heart Institute lenti-shRNA library core (shRNA TGFβRII #197031 and 194992 and a shRNA control) were used. The human library was purchased from Sigma-Aldrich (MISSION shRNA; St. Louis, Mo.). Viral vector was produced by the Viral Vector Core at the Translational Core Laboratories, Cincinnati Children's Hospital Research Foundation. Cells were grown to 80% confluency in 6-well plates before being infected with the lentivirus for 48 h. Infected cells were selected with 1 µg/ml puromycin (Sigma) for 48 h. Following selection, TGFβRII knock down cells were grown in regular media for 48 h before being activated with 5 ng/ml TGFβ1 for 24 h.
as §1
(§2) For Nile red staining, cells or OCT sections were fixed 10 minutes at room temperature in 4% formaldehyde. After 3 wash in 1×PBS, staining with 0.1 pg/ml of Nile red (Sigma) was performed in 0.15M NaCl for 15 minutes at room temperature. For Oil red 0 staining, cells were fixed 15 minutes in 10% formalin, wash with water for 10 minutes and 60% isopropanol before being stained with Oil red 0 (0.7% in 60% isopropanol) for 45 minutes. Cells were rinsed with 60% isopropanol and the nuclei stained with haematoxylin. To trigger differentiation of sebocytes in vitro, linoleic acid (Sigma, 0.1 mM) was added directly to sebocyte media. To prepare cells for extraction of lipids, 20-30 millions of cells were pelleted, washed with 1×PBS and lipid were preserved in the dark at −80° C. under argon until analysis. The qualitative and quantitative composition of lipids in scalp-derived human sebocytes was determined using an Agilent 5973N Gas chromatograph/Mass spectrometer with a SPE cartridge (solid phase extraction) and was performed by Synelvia S.A.S (Labege, France).

[5] = test system: NIKS; assay: Immunoblot of Smad2 phosphorylation in NIKS keratinocytes; type: cell-based, human; conditions: 5 ng/ml TGFβ1, one hour
[6] = test system: SEB-1; assay: Immunoblot of Smad2 phosphorylation in SEB-1; type: cell-based, human; conditions: 5 ng/ml TGFβ1, one hour
[7] = test system: SSG3 cells; assay: Lipogenesis assays (Nile red, Oil red O, electron microscopy, Nile red FACS) in SSG3 cells; type: cell-based, human
Method: as §2
Cells were cultured in 6-well plates at 80% confluence and infected with the lentivirus expressing the shRNAs as previously described. After puromycin selection for 48 h, cells were washed in 1×PBS and treated with working medium with or without Linoleic acid (0.1 mM) for 24 h. The cells were trypsinized, washed once with 1×PBS and neutral lipids were labeled with the fluorescent dye Nile red (1 pg/ml in PBS). 10,000 cells per sample were analyzed using a FACS Canto I (BD Biosciences) equipped with a blue laser (488 nm excitation).
Cells were grown at 80% confluency in sebocyte media and rinsed once with 0.175M sodium cacodylate buffer. Cells were fixed in 3% glutaraldehyde/0.175M cacodylate buffer for 1 hour at 4° C. Dishes were washed twice with 0.175M sodium cacodylate buffer. Cells were post fixed in 1% osmium tetroxide/cacodylate buffer for 1 hour at 4° C. before being washed three times with 0.175M sodium cacodylate buffer. After the final wash with 1.5 ml, cells were scraped and centrifuged for 5 min at 10K. The cell pellet was then resuspended in 1 ml 1% agarose (Type IX ultra-low gelling tempt, Sigma) overnight at 4° C. The samples were then processed through a graded series of alcohols, infiltrated and embedded in LX-112 resin (Ladd Research, Williston, Vt. After polymerization at 60° C. for three days, ultrathin sections (100 nm) were cut using a Reichert-Jung Ultracut E microtome and counterstained in 2% aqueous uranyl acetate and Reynolds lead citrate. Images were taken with a transmission electron microscope (Hitachi H-6750) equipped with a digital camera (AMT 2k×2K tem CCD).

[8] = test system: SEB-1; assay: Real-time PCR of PPARγ expression in immortalized sebocyte line SEB-1; type: cell-based, human; conditions: SEB-1, 0.1 mM linoleic acid, 48 h, vs untreated
Method: as §1
as §2, with “To trigger differentiation of sebocytes in vitro, linoleic acid (Sigma, 0.1 mM) was added directly to sebocyte media. To prepare cells for extraction of lipids, 20-30 millions of cells were pelleted, washed with 1×PBS and lipid were preserved in the dark at −80° C. under argon until analysis.” left out

[9] = SSG3, 5 ng/ml TGFβ1, 24 h, vs untreated
[10] = TGFβRII-deficient SSG3 cells, TGFβ1

CN(CCOc1ccc(CC2SC(=O)NC2=O)cc1)c1ccccn1 (stereo not shown) [Rosglitazone]
effect on lipogenesis [1]: decrease lipogenesis

C[C@]12CC[C@H](O)CC1=CC[C@@H]1[C@@H]2CC[C@]2(C)C(=O)CC[C@@H]12 [DHEA, 5-Dehydroepiandrosterone]
effect on lipogenesis [1]: increase lipogenesis

TGFβ1: exogenously recombinant TGFβ1, Transforming Growth Factor β ligand
FADS2 expression [2]: decreased significantly
PPARγ expression [2]: decreased significantly
Smad2 activation (phosphorylated Smad2) [3]: activate Smad2
mRNA expression of FADS2 [4, 9]: significantly decreased
mRNA expression of PPARγ [4, 9]: significantly decreased
decrease in FADS2 gene expression after TGFβ1 [4, 10]: not detected
decrease in PPARγ gene expression after TGFβ1 [4, 10]: not detected
TGFβRII expression ([4]; control SSG3 cells treated with TGFβ for 24 h): decrease of TGFβRII
Smad2 activation (phosphorylated Smad2) [5]: activate Smad2
Smad2 activation (phosphorylated Smad2) [6]: activate Smad2
lipid production ([7]; SSG3 expressing TGFβRII shRNA, TGFβ1 5 ng/ml, 24 h): no effect on the lipid production
lipid inclusion ([7]; SSG3 with non-targeting shRNA control, TGFβ1 5 ng/ml, 24 h): decrease in lipid inclusion

CC(=O)O[C@]1(C(C)=O)CC[C@H]2[C@@H]3C=C(Cl)C4=CC(=O)[C@@H]5C[C@@H]5[C@]4(C)[C@H]3CC[C@@]21C [Cyproteron acetate]
effect on lipogenesis [1]: decrease lipogenesis

C[C@]12CCC(=O)C[C@@H]1CC[C@@H]1[C@@H]2CC[C@]2(C)[C@@H](O)CC[C@@H]12 [5α-DHT, di-hydrotestosterone]
effect on lipogenesis [1]: increase lipogenesis
effect on proliferation [1]: increase proliferation

CCCCC/C=C\C/C=C\CCCCCCCC(=O)O [linoleic acid]
FADS2 expression ([4]; SSG3 cells, 0.1 mM linoleic acid, 24 h and 48 h, vs untreated): significant increase of FADS2 expression
PPARγ expression ([4]; SSG3 cells, 0.1 mM linoleic acid, 48 h, vs untreated): increase in PPARγ
PPARγ expression [8]: do not show any significant changes
Nile red flow cytometry: fluorescence (neutral lipids) and granularity ([7]; SSG3, 0.1 mM linoleic acid, 24 h): increase of fluorescence and granularity
lipid droplets by electron microscopy ([7]; SSG3, after linoleic acid treatment vs untreated): increase of lipid droplets with higher electron density
cellular lipid distribution by Nile red stain ([7]; SSG3, two days of linoleic acid treatment (0.1 mM)): producing lipids

CC1=C(/C=C/C(C)=C/C=C/C(C)=C\C(=O)O)C(C)(C)CCC1 [Isotretinoin, 13-cis retinoic acid]
effect on cell cycle [1]: cell cycle arrest
effect on proliferation [1]: anti-proliferative effect on sebocytes
